Laboratory results as given in article PMC11540844, “Enhancing transcription–replication conflict targets ecDNA-positive cancers” (Nature, 2024).
Where “and” joins values, the source holds several entries; their conditions need not be identical. Identical values can stand only once. Like-named read-outs stand apart in the source and are kept apart here.

Experiments:
SNU16 cells = assay: Cell viability (CellTiter-Glo); format: cell-based, human; conditions: for 3-day Cell Titer Glo relative signal (Source data Ext Fig 10b): Control SNU16, replicates; for IC50: Homo sapiens
Protocol: Cell viability assay was performed using CellTiter-Glo (Promega, catalgoue no. G8461) as previously described. Briefly, cells were seeded into a 384-well plate one day before adding inhibitors. Equal volumes of vehicles or drugs diluted at indicated concentration were added into each well the next day, and the cells were incubated for three days. On the third day, after equilibrating plate and CellTiter-Glo reagent at room temperature for 30 min, reagent was added into each well and incubated for 15 min at room temperature. Luminescence was measured using a Synergy 2 microplate reader. Four biological replicates were performed for each condition. Data analysis was performed with GraphPad Prism (v.9.1.0). […]

[1] = system: infigratinib-resistant SNU16 cells; assay: 3-day Cell Titer Glo in SNU16 cells after 8 weeks of infigratinib; format: cell-based, human; conditions: for 3-day Cell Titer Glo relative signal (Source data Ext Fig 10b): infi-intermed 8 wk SNU16, replicates
Text: (§1) Nuclear staining is illustrated using DAPI (blue). […] Scale bar represents 10 µm. (b) Timeline of experimental overview. […] Lane 1 (control) is from a non-contiguous portion of the gel from lanes 2 and 3 (infigratinib treated samples).

SNU16 xenograft tumours = assay: SNU16 xenograft tumour model, tumour volume; format: in vivo, mice; conditions: for tumour volume, individual mice: Infigratinib 15 mg/kg PO QD
Protocol: Animal experiments were performed in accordance with protocols approved by the Charles River Accelerator and Development Lab (CRADL) Institutional Animal Care and Use Committee (protocol no. EB17-010-066). Mice were socially housed in individually ventilated cages on a 12/12 h light/dark cycle with temperatures between 65 and 75 °F and 30–50% humidity. The SNU16 gastric cancer cell line was purchased from ATCC (catalogue no. CRL5974) and maintained in Roswell Park Memorial Institute growth medium (Gibco, catalogue no. 22400-089) supplemented with 10% FBS (Omega Scientific, catalogue no. FB-02). To establish tumours, 1 × 10^6 SNU16 cells in 200 µl of a 1:1 mixture of PBS and Matrigel (Corning, catalogue no. 354234) were given by subcutaneous injection into the right flank of 9-week-old female severe combined immunodeficient beige mice (Envigo, strain code 186). Tumour measurements were taken two to three times per week and body weights were taken daily. Tumour volume measurements were obtained using digital calipers and tumour volumes (mm^3) were determined using the formula: tumour volume = (L × W2)/2, where L is the length/largest tumour diameter and W is the width/shortest tumour diameter, with all tumours collected before reaching 1,500 mm^3. Animals (eight mice per group, which historically allowed for significance determination between vehicle and infigratinib) were randomly assigned to unblinded treatment with vehicle, infigratinib (15 mg kg^−^1 oral (PO) once-daily (QD)), BBI-2779 (30 mg kg^−^1 PO every other day (Q2D)) or the combination of BBI-2779 and infigratinib once average tumour volume was 285 (±10)/mean (±s.e.m.) mm^3. One vehicle tumour was taken down on day 22; the mouse was sacrificed due to large tumour volume. Infigratinib was formulated in a 1:1 mixture of sodium acetate buffer, pH 4.6 and polyethylene glycol 300. BBI-2779 was formulated in 0.5% methylcellulose (Sigma-Aldrich, catalogue no. M0512) and 0.2% Tween 80 (AG Scientific, catalogue no. T-2835) in HyPure Molecular Biology Grade Water (HyClone, catalogue no. SH30538.02). […] Animals were sacrificed 6 h, 24 h or 36 h after the last dose, and tumours were collected for western blot or copy number analysis.

FGFR2 copy number = FGFR2 copy number by qPCR on xenograft tumour DNA; format: in vivo, mice; conditions: infigratinib 15 mg kg-1 PO QD
Protocol: For copy number analysis, tumours were cut into 10–20 mg pieces and flash-frozen in liquid nitrogen. DNA was extracted using the QIAcube DNA Extraction Kit (Qiagen, no. 51331). Briefly, a mixture of buffer ATL and proteinase K was added to the frozen tumour pieces, and they were set out to equilibrate to room temperature. Tumours were then vortexed for 30 s and placed into an incubator at 56 °C to digest overnight. The next morning, an additional 150 μl of buffer ATL was added and samples vortexed for an additional 30 s to reduce the viscosity of the samples before transfer to the S block. Qiagen protocol for the 96 QIAcube HT was followed for the remainder of the DNA isolation. Purified DNA was quantified for the presence of double-stranded DNA on the QIAxpert (Qiagen, catalogue no. 9002340). The DNA was diluted to 5 ng µl^−^1 (5× working stock) in RNase/DNase free water (Thermo Fisher Scientific, catalogue no. 10977015) and 2 µl was loaded into a 384-well plate. […]

[2] = system: FGFR2 copy number in SNU16 cells; assay: qPCR quantification of FGFR2 oncogene number in SNU16 cells; format: cell-based, human; conditions: 8.0 weeks of infigratinib
Text: as §1

Q: Which results are given for `CCN1CCN(c2ccc(Nc3cc(N(C)C(=O)Nc4c(Cl)c(OC)cc(OC)c4Cl)ncn3)cc2)CC1` [infigratinib]?
A: 3-day Cell Titer Glo relative signal (Source data Ext Fig 10b) (SNU16 cells; 0.152416 nM infigratinib): 1.0456 and 1.0233; 3-day Cell Titer Glo relative signal (Source data Ext Fig 10b) (SNU16 cells; 0.457247 nM infigratinib): 0.9513 and 0.976; 3-day Cell Titer Glo relative signal (Source data Ext Fig 10b) (SNU16 cells; 1.37174 nM infigratinib): 0.9221 and 0.9386; 3-day Cell Titer Glo relative signal (Source data Ext Fig 10b) (SNU16 cells; 4.11523 nM infigratinib): 0.7516 and 0.791; 3-day Cell Titer Glo relative signal (Source data Ext Fig 10b) (SNU16 cells; 12.3457 nM infigratinib): 0.4353 and 0.4209; 3-day Cell Titer Glo relative signal (Source data Ext Fig 10b) (SNU16 cells; 37.037 nM infigratinib): 0.1753 and 0.1537; 3-day Cell Titer Glo relative signal (Source data Ext Fig 10b) (SNU16 cells; 111.111 nM infigratinib): 0.1409 and 0.1325; 3-day Cell Titer Glo relative signal (Source data Ext Fig 10b) (SNU16 cells; 333.333 nM infigratinib): 0.1569 and 0.1376; 3-day Cell Titer Glo relative signal (Source data Ext Fig 10b) (SNU16 cells; 1000 nM infigratinib): 0.1554 and 0.1292; IC50 (SNU16 cells; SNU-16, 72 h, control SNU16 cells, 3-day Cell Titer Glo, Extended Data Fig. 10b, read-out: "IC50" control): 0.00785 µM; IC50 (SNU16 cells; SNU-16, SNU16 cells, Extended Data Fig. 10, read-out: IC50 (EC50 dose used for 8 weeks of treatment)): 0.025 µM; IC50 ([1]; Homo sapiens, SNU-16, SNU16 after 8 weeks of infigratinib, 3-day Cell Titer Glo): 0.0301 µM; 3-day Cell Titer Glo relative signal (Source data Ext Fig 10b) ([1]; 0.152416 nM infigratinib): 0.9851 and 1.028; 3-day Cell Titer Glo relative signal (Source data Ext Fig 10b) ([1]; 0.457247 nM infigratinib): 1.032 and 1.122; 3-day Cell Titer Glo relative signal (Source data Ext Fig 10b) ([1]; 1.37174 nM infigratinib): 1.185 and 1.134; 3-day Cell Titer Glo relative signal (Source data Ext Fig 10b) ([1]; 4.11523 nM infigratinib): 1.087 and 1.319; 3-day Cell Titer Glo relative signal (Source data Ext Fig 10b) ([1]; 12.3457 nM infigratinib): 1.111 and 1.106; 3-day Cell Titer Glo relative signal (Source data Ext Fig 10b) ([1]; 37.037 nM infigratinib): 0.3322 and 0.3782; 3-day Cell Titer Glo relative signal (Source data Ext Fig 10b) ([1]; 111.111 nM infigratinib): 0.158 and 0.1671; 3-day Cell Titer Glo relative signal (Source data Ext Fig 10b) ([1]; 333.333 nM infigratinib): 0.14 and 0.158; 3-day Cell Titer Glo relative signal (Source data Ext Fig 10b) ([1]; 1000 nM infigratinib): 0.1637 and 0.1685; tumour volume, individual mice (SNU16 xenograft tumours; day of study 1): 275.78 mm^3 and 318.63 mm^3 and 234.6 mm^3 and 333.76 mm^3 and 272.35 mm^3 and 399.19 mm^3 and 215.35 mm^3 and 244.48 mm^3; tumour volume, individual mice (SNU16 xenograft tumours; day of study 5): 207 mm^3 and 207.01 mm^3 and 194.06 mm^3 and 114.59 mm^3 and 223.51 mm^3 and 272.2 mm^3 and 162.32 mm^3 and 141.42 mm^3; tumour volume, individual mice (SNU16 xenograft tumours; day of study 8): 138.07 mm^3 and 126.44 mm^3 and 146.81 mm^3 and 70.82 mm^3 and 180.25 mm^3 and 231.85 mm^3 and 107.33 mm^3 and 100.66 mm^3; tumour volume, individual mice (SNU16 xenograft tumours; day of study 11): 156.25 mm^3 and 176.04 mm^3 and 166.7 mm^3 and 123.46 mm^3 and 218.18 mm^3 and 282.27 mm^3 and 116.93 mm^3 and 111.73 mm^3; tumour volume, individual mice (SNU16 xenograft tumours; day of study 13): 172.17 mm^3 and 176.87 mm^3 and 188.21 mm^3 and 133.63 mm^3 and 270.33 mm^3 and 330.51 mm^3 and 108.35 mm^3 and 124.21 mm^3; tumour volume, individual mice (SNU16 xenograft tumours; day of study 15): 126.09 mm^3 and 205.17 mm^3 and 263.36 mm^3 and 166 mm^3 and 337.92 mm^3 and 367.94 mm^3 and 166.72 mm^3 and 154.6 mm^3; tumour volume, individual mice (SNU16 xenograft tumours; day of study 18): 157.95 mm^3 and 204.33 mm^3 and 255.64 mm^3 and 193.27 mm^3 and 380.93 mm^3 and 448.61 mm^3 and 202.33 mm^3 and 176.11 mm^3; tumour volume, individual mice (SNU16 xenograft tumours; day of study 20): 165.11 mm^3 and 203.59 mm^3 and 221.67 mm^3 and 192.93 mm^3 and 417.82 mm^3 and 479.35 mm^3 and 231.86 mm^3 and 168.05 mm^3; tumour volume, individual mice (SNU16 xenograft tumours; day of study 22): 223.01 mm^3 and 251.01 mm^3 and 223.64 mm^3 and 246.07 mm^3 and 397.26 mm^3 and 479.73 mm^3 and 254.62 mm^3 and 184.76 mm^3; tumour volume, individual mice (SNU16 xenograft tumours; day of study 25): 231.38 mm^3 and 244.62 mm^3 and 333.8 mm^3 and 257.4 mm^3 and 426.98 mm^3 and 499.94 mm^3 and 237.29 mm^3 and 196.21 mm^3; tumour volume, individual mice (SNU16 xenograft tumours; day of study 27): 227.44 mm^3 and 236.39 mm^3 and 325 mm^3 and 271.28 mm^3 and 505.17 mm^3 and 681.55 mm^3 and 273.5 mm^3 and 238.76 mm^3; mean per cent tumour growth inhibition (SNU16 xenograft tumours; infigratinib 15 mg kg^−1 PO QD, day 25, vs vehicle, P < 0.0005): 97%; FGFR2 copy number by qPCR on tumour DNA, individual tumours (FGFR2 copy number): 356.837 and 338.53 and 324.931 and 257.5 and 276.141 and 331.223 and 308.687 and 333.495; FGFR2 CN [2]: 332.123
